Assay results taken from patent US7691416B2, “Methods of treating vascular disease” (priority 2002, dated 2010).

Test system: graft infiltration by activated leukocytes
Assay: Immunostaining and cell population analysis of the adventitia of aortic grafts
Assay type: in vivo, rat
Details: 56 days after transplantation
Excerpt: Animals. Male (250-350 g) Brown Norway rats (RT1^n) were used as aortic graft donors and male (250-350 g) Lewis rats (RT11) as recipients. Dawley (400-450 g) rats were used in the balloon injury model. Adult male C57BL/6, C57/S129, p21^−/− and p53^−/− null mice were purchased from Jackson Laboratory (Bar Harbor, Me.). mkk3^(−/−) null mice were generated as described Lu et al. (EMBO. 18:1845-1857 (1999)). The inos^−/− and enos^−/− mice were bred at the University of Pittsburgh. Aortic transplant model. Aortic transplantation was performed as described in Shimizu et al. (Nat. Med. 7:738-741 (2001)). Briefly, 3 to 4 cm of descending aorta was harvested from the donor and implanted between the renal arteries and the aortic bifurcation of the recipient. Both edges of the native abdominal aorta were ligated. Balloon injury model. Balloon angioplasty was carried out as described in Murakami et al. (Atherosclerosis 157:361-368 (2001)). Briefly, a 2 Fr. arterial embolectomy catheter (Baxter, Chicago, Ill.) was inserted into the common carotid artery, and injury was created by inflating the balloon to 5 atmospheres of pressure for 5 minutes. The arteries were flushed and the external carotid artery was ligated, ensuring return of blood flow through the common and internal carotid arteries. Injury of the vessel wall and subsequent pathological analysis was made in a manner that was blinded to the treatment group. CO exposure. CO was delivered to animals as described in Otterbein et al. (Nat. Med. 6:422-428 (2000)). […] In the balloon injury model, rats received either no pretreatment or were exposed to CO (250 ppm) for one hour prior to injury. Following surgery rats were housed in room air for two weeks. Cells. Primary mouse and rat smooth muscle cells (SMC) were isolated and cultured as described in Laubach et al. (Proc Natl Acad Sci USA 92:10688-9 (1995)). Mouse SMC isolated from HO-1^−/− mice were obtained as described in Duckers et al. (Nat. Med. 7:693-698 (2001)). Cell treatment and reagents. Guanylate cyclase inhibitor 1H(1,2,4) oxadiazolo(4,3-a)quinoxalin-1 (ODQ; Calbiochem-Novabiochem, San Diego, Calif.; 10-100 μM) and p38 MAPK inhibitor pyridinyl imidazol SB203580 (Calbiochem; 5-20 μM) were dissolved in DMSO. The cGMP analogue 8-bromo-cGMP sodium salt (8-Br-cGMP; Sigma-Aldrich, St. Louis, Mo.; 10-100 μM) and the PKG inhibitor (10-100 μM; Alexis Biochemicals) were dissolved in water. […] [^3H]thymidine incorporation was measured by scintillation spectroscopy and presented as mean counts/min/well. […] Areas from eight to ten captured images were calculated using digital imaging software as number of pixels corresponding to those areas. Twenty-four to forty-eight sections from each group were statistically analyzed with SPSS software version 10. […]

[1] = adventitia of allogeneic aortic grafts

Compound: [C-]#[O+] [CO, carbon monoxide]
- Accumulation of CD45+/CD3+ T cells, inhibition versus air treated controls [1]: 57±22%
- Accumulation of CD45+/CD68+ monocyte/macrophages, inhibition versus air treated controls [1]: 65±24%
- Expression of MHC II antigens and CD54/ICAM-1 (Mø activation) [1]: inhibited
- Graft infiltration by activated leukocytes (CD45+), inhibition versus air treated controls (maximal effect, 700 to 1000 ppm of CO): 52±20%
